Source: patent US8933233B2, “1,3,4-oxadiazole and 1,3,4-thiadiazole β-lactamase inhibitors” (priority 2012, dated 2015)
Counter-ions that a name gives are not always drawn.

Tests used:
[1] = test system: bacterial strains that express the class D cephalosporinase OXA-15; assay: Synergy MIC / standard BLI potentiation MIC assay, strains expressing OXA-15; type: cell-based, E. coli; conditions: in presence of a β-lactam; comparator Avibactam (CCC)
Outline: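 Broth microdilution in CAMHB per CLSI M07-A9, ~10^5 CFU/mL inoculum, 18–20 h at 37 °C with aeration; engineered E. coli kept with 25 μg/mL tetracycline. β-lactam 2-fold from 128 to 0.13 μg/mL with BLI fixed at 4 μg/mL, or BLI serially diluted with β-lactam fixed; MIC is lowest concentration without visible turbidity.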

[2] = test system: bacterial strains that express KPC β-lactamases; assay: Synergy MIC / standard BLI potentiation MIC assay, strains expressing KPC β-lactamases; type: cell-based, isogenic E. coli and clinical isolates; conditions: more active for at least one KPC strain and/or better spectrum; comparator Avibactam
Experimental: Unless otherwise indicated, the activity of the BLI compounds can be described by the MIC value obtained from a Synergy MIC assay or a BLI potentiation assay (e.g as described herein), both of which are run in the presence of a β-lactam.
The experimental protocol was performed according to Clinical and Laboratory Standards Institute (CLSI) guidelines with modifications as described below (CLSI guidelines can be derived from the CLSI document M07-A9 published in January 2012: “Methods for Dilution Antimicrobial Susceptibility Tests for Bacteria That Grow Aerobically; Approved Standard-Ninth Edition”).
To prepare for MIC testing, frozen glycerol stocks of clinical isolates (Klebsiella pneumoniae, Eschericia coli, Enterobacter spp, Citrobacter spp, or Pseudomonas aeruginosa) were used to streak for isolated colonies on rich, non-selective, tryptic soy agar containing 5% sheep's blood (TSAB). Frozen glycerol stocks of laboratory engineered, isogenic E. coli strains, which contain cloned β-lactamase expressing plasmids were used to streak for isolated colonies on rich, selective LB agar supplemented with 25 μg/mL tetracycline to maintain the plasmid. All strains were incubated at 37° C. for 18-24 hrs.
On the day of testing, primary cultures were started by scraping off 5-10 colonies from the TSAB plates containing clinical strains or the tetracycline supplemented LB plates containing engineered strains. The clinical strain material was suspended in ˜5 mL of cation adjusted Mueller Hinton Broth (CAMHB) in 14 mL culture tubes. The engineered strain material was suspended in CAMHB (supplemented with 25 μg/mL tetracycline) in 14 mL culture tubes. All strains were incubated at 37° C. with aeration (200 rpm) for ˜2 hrs until the optical density at 600 nm (OD600) was ≧0.1.
The two compound components of the assay were each diluted in CAMHB and added to the 96-well broth microdilution assay plates. 50 μL of the β-lactam was added to each well of the assay plate in 2-fold dilutions with final concentrations ranging from 128 to 0.13 μg/mL. 25 μL of the BLI compound was added to all wells in the broth microdilution plates at a final concentration of 4 μg/mL. Inoculum cultures were prepared by standardizing the primary cultures to OD600=0.1 and then adding 20 μL of the adjusted primary culture per 1 mL CAMHB for clinical strains or CAMHB (supplemented with tetracycline at 100 μg/mL) for engineered strains, so that the final inoculum density was ˜10^5 colony forming units per milliliter. Diluted inoculum cultures were used to inoculate 25 μL per well in 96-well broth microdilution assay plates. The final volume of each well was 100 μL and contained a β-lactam at different concentrations, a BLIcompound at 4 μg/mL concentration, the bacterial culture at an OD600 of approximately 0.001 and when necessary tetracycline at 25 μg/mL.
Plates were incubated for 18-20 hours at 37° C. with aeration (200 rpm). Following incubation, growth was confirmed visually placing plates over a viewing apparatus (stand with a mirror underneath) and then OD600 was measured using a SpectraMax 340PC384 plate reader (Molecular Devices, Sunnyvale, Calif.). Growth was defined as turbidity that could be detected with the naked eye or achieving minimum OD600 of 0.1. MIC values were defined as the lowest concentration producing no visible turbidity.
The synergy MIC (sMIC) assay determines the concentration of the BLI required to potentiate the activity of a fixed concentration of a β-lactam antibiotic against β-lactamase producing bacterial strains. The experimental protocol was performed according to Clinical and Laboratory Standards Institute (CLSI) guidelines with modifications as described below (CLSI guidelines can be derived from the CLSI document M07-A9 published in January 2012: “Methods for Dilution Antimicrobial Susceptibility Tests for Bacteria That Grow Aerobically; Approved Standard-Ninth Edition”). […]

Compound	activity against bacterial strains that express OXA-15, compared with Avibactam [1]	activity and/or spectrum of activity against bacterial strains that express KPC β-lactamases, compared with Avibactam [2]
O=C1N2C[C@@H](CC[C@H]2c2nnc([C@@H]3CCNC3)o2)N1OS(=O)(=O)O [Compound 759, (2S,5R)-7-oxo-2-(5-((R)-pyrrolidin-3-yl)-1,3,4-oxadiazol-2-yl)-1,6-diazabicyclo[3.2.1]octan-6-yl hydrogen sulfate]	more active than Avibactam	more active than Avibactam
O=C1N2C[C@@H](CC[C@H]2c2nnc(CNC3CNC3)o2)N1OS(=O)(=O)O [Compound 726, (2S,5R)-2-(5-((azetidin-3-ylamino)methyl)-1,3,4-oxadiazol-2-yl)-7-oxo-1,6-diazabicyclo[3.2.1]octan-6-yl hydrogen sulfate]	more active than Avibactam	more active than Avibactam
NCc1nnc([C@@H]2CC[C@@H]3CN2C(=O)N3OS(=O)(=O)O)o1 [Compound 702, (2S,5R)-2-(5-(aminomethyl)-1,3,4-oxadiazol-2-yl)-7-oxo-1,6-diazabicyclo[3.2.1]octan-6-yl hydrogen sulfate]	more active than Avibactam	more active than Avibactam
NC(=O)c1nnc([C@@H]2CC[C@@H]3CN2C(=O)N3OS(=O)(=O)O)o1 [Compound 706, (2S,5R)-2-(5-carbamoyl-1,3,4-oxadiazol-2-yl)-7-oxo-1,6-diaza-bicyclo[3.2.1]octan-6-yl hydrogen sulfate]	more active than Avibactam	more active than Avibactam
N=C1NCC(c2nnc([C@@H]3CC[C@@H]4CN3C(=O)N4OS(=O)(=O)O)o2)N1 (stereo partly drawn) [Compound 767, (2S,5R)-2-(5-(2-iminoimidazolidin-4-yl)-1,3,4-oxadiazol-2-yl)-7-oxo-1,6-diazabicyclo[3.2.1]octan-6-yl hydrogen sulfate]	more active than Avibactam	more active than Avibactam
O=C1N2C[C@@H](CC[C@H]2c2nnc([C@H]3CNCCN3)o2)N1OS(=O)(=O)O [Compound 779, (2S,5R)-7-oxo-2-(5-((R)-piperazin-2-yl)-1,3,4-oxadiazol-2-yl)-1,6-diazabicyclo[3.2.1]octan-6-yl hydrogen sulfate]	more active than Avibactam	more active than Avibactam
O=C1N2C[C@@H](CC[C@H]2c2nnc(COC3CNC3)o2)N1OS(=O)(=O)O [Compound 744, (2S,5R)-2-(5-((azetidin-3-yloxy)methyl)-1,3,4-oxadiazol-2-yl)-7-oxo-1,6-diazabicyclo[3.2.1]octan-6-yl hydrogen sulfate]	more active than Avibactam	more active than Avibactam
O=C1N2C[C@@H](CC[C@H]2c2nnc(CCNC3CNC3)o2)N1OS(=O)(=O)O [Compound 745, (2S,5R)-2-(5-(2-(azetidin-3-ylamino)ethyl)-1,3,4-oxadiazol-2-yl)-7-oxo-1,6-diazabicyclo[3.2.1]octan-6-yl hydrogen sulfate]	more active than Avibactam	more active than Avibactam
N[C@H]1C[C@H](c2nnc([C@@H]3CC[C@@H]4CN3C(=O)N4OS(=O)(=O)O)s2)C1 [Compound 783, (2S,5R)-2-(5-((1r,3S)-3-aminocyclobutyl)-1,3,4-thiadiazol-2-yl)-7-oxo-1,6-diazabicyclo[3.2.1]octan-6-yl hydrogen sulfate]	more active than Avibactam	more active than Avibactam
NCCCc1nnc([C@@H]2CC[C@@H]3CN2C(=O)N3OS(=O)(=O)O)o1 [Compound 720, (2S,5R)-2-(5-(3-aminopropyl)-1,3,4-oxadiazol-2-yl)-7-oxo-1,6-diazabicyclo[3.2.1]octan-6-yl hydrogen sulfate]	more active than Avibactam	more active than Avibactam
N[C@H]1C[C@H](c2nnc([C@@H]3CC[C@@H]4CN3C(=O)N4OS(=O)(=O)O)o2)C1 [Compound 727, (2S,5R)-2-(5-((1r,3S)-3-aminocyclobutyl)-1,3,4-oxadiazol-2-yl)-7-oxo-1,6-diazabicyclo[3.2.1]octan-6-yl hydrogen sulfate]	more active than Avibactam	more active than Avibactam
NC1CCN(Cc2nnc([C@@H]3CC[C@@H]4CN3C(=O)N4OS(=O)(=O)O)o2)CC1 [Compound 774, (2S,5R)-2-(5-((4-aminopiperidin-1-yl)methyl)-1,3,4-oxadiazol-2-yl)-7-oxo-1,6-diazabicyclo[3.2.1]octan-6-yl hydrogen sulfate]	more active than Avibactam	more active than Avibactam
N=C(N)N1CC(Cc2nnc([C@@H]3CC[C@@H]4CN3C(=O)N4OS(=O)(=O)O)o2)C1 [Compound 741, (2S,5R)-2-(5-((1-carbamimidoylazetidin-3-yl)methyl)-1,3,4-oxadiazol-2-yl)-7-oxo-1,6-diazabicyclo[3.2.1]octan-6-yl hydrogen sulfate]	more active than Avibactam	more active than Avibactam
N[C@H]1C[C@H](CCc2nnc([C@@H]3CC[C@@H]4CN3C(=O)N4OS(=O)(=O)O)o2)C1 [Compound 753, (2S,5R)-2-(5-(2-((1r,3R)-3-aminocyclobutyl)ethyl)-1,3,4-oxadiazol-2-yl)-7-oxo-1,6-diazabicyclo[3.2.1]octan-6-yl hydrogen sulfate]	more active than Avibactam	more active than Avibactam
O=C1N2C[C@@H](CC[C@H]2c2nnc(CCNC3CCNCC3)o2)N1OS(=O)(=O)O [Compound 770, (2S,5R)-7-oxo-2-(5-(2-(piperidin-4-ylamino)ethyl)-1,3,4-oxadiazol-2-yl)-1,6-diazabicyclo[3.2.1]octan-6-yl hydrogen sulfate]	more active than Avibactam	more active than Avibactam
